Reference: patent US6120997A, “Nucleic acid binders having an hydroxyamine motif” (The Scripps Research Institute, priority 1998, dated 2000)

Experiments:
AS-wt = test: SPR binding of aminoglycosides to decoding region A-site model AS-wt; set-up: species or system E. coli; conditions: for specificity for AS-wt over negative controls (in words): Example 5, HBS-buffer
Experimental: The RNA binding properties of 100-800 were analyzed using a surface plasmon resonance based assay that was recently developed in these laboratories. This assay allows the determination of both affinity and specificity of small molecule-RNA interactions. For the analysis, the compounds were injected over a matrix containing RNA that was immobilized through a biotin tag and the equilibrium binding values were recorded at various concentrations.
Non-linear curve fitting was then used to determine the values of the dissociation constants (KD). The specificity of binding, i.e. the ability to discriminate between different RNA sequences was evaluated by comparing the binding to the target sequence (AS-wt) and the negative control (AS-U1495A). The ratio of KD(AS-U1495A) to KD(AS-wt) was taken to be a representation of the specificity of the binding event.
(§1) For the quantitative measurement of aminoglycoside binding to these sequences, we utilized our recently developed SPR-based assay. Biotinylated derivatives of all sequences were prepared by in vitro transcription in the presence of guanosine 5'-monophosphorothioate followed by alkylation with a biotin iodoacetamide derivative. The RNA conjugates were then immobilized onto streptavidin coated SPR-sensorchips for analysis.
(§2) In the same manner as illustrated for paromomycin, a panel of aminoglycosides was screened and the results are compiled in the table of FIGS. 46 and 47. In addition to the naturally occuring aminoglycoside antibiotics, some of the compounds in FIG. 46 are synthetically derived, unnatural aminoglycosides. The number of independent determinations for each dissociation constant ranged from 1-3. […] All data were recorded under near physiological salt conditions (HBS-buffer: 150 mM NaCl, 10 mM HEPES, pH7.4, 3.4 mM EDTA) unless noted otherwise. Data points were taken at concentrations ranging from […]. Below this concentration range, surface transport limitations prevent the attainment of equilibrium.
Plasmon resonance and antimicrobial testing for Example 4. Synthesis of the biotinylated RNA and surface plasmon resonance detected binding experiments were performed as described vida supra. Solution conditions: 150 mM NaCl, 10 mM HEPES (pH 7.4), 3.4 mM EDTA. KD determination from the binding curves.
The fitting routine of the program kaleidagraph was used for all calculations. The starting values for a and b were set to 1 and 0 respectively. The number of KD values used in the fitting was adjusted depending on the observed range of equivalents bound but generally varied from 3 to 4.
General Procedures for SPR Binding Studies done in Example 5. Samples were prepared by serial dilutions from stock solutions in RNase free microfuge tubes (Ambion) and were centrifuged at 14000 rpm for degassing. Unless otherwise noted, all binding studies were carried out using HBS buffer (Pharmacia Biosensor AB) which was used as obtained. All procedures for binding studies were automated as methods using repetitive cycles of sample injection and regeneration. Typically, buffer was injected in the first two cycles to establish a stable baseline value. Samples were injected at a flowrate of […] using either the KINJECT command. All aminoglycoside samples were injected from autoclaved 7 mm plastic vials that were capped with pierceable plastic crimp caps. To minimize carry over, samples were injected in order of increasing concentration. The running buffer was identical to the injection buffer. Expected values for the equilibrium response of one equivalent of analyte were calculated from the relative molecular weight of the analyte and the immobilized RNA ligand in each flowcells and adjusted with a correction factor of 0.76 which arises from the different molar refractive indices of RNA and the analyte. […]

AS-U1406A = test: SPR binding of aminoglycosides to AS-U1406A; conditions: Example 5, HBS-buffer
Source text: To understand the specificity of ribosomal RNA recognition by the various aminoglycosides, we decided to investigate their binding to AS-wt and compare the results to a series of control mutants which have likewise been characterized by footprinting (FIG. 44). These include the negative controls AS-U1495A, AS-DA1492 and AS-res. […] In AS-U1495A a critical hydrogen bond acceptor which interacts with N1 of the 2-deoxystreptamine ring has been removed. The mutation DA1492 destroys the bulged pocket in which paromomycin ring II (the glucose ring) is positioned. Finally, in the AS-res mutant the G1491:C1409 base pair which creates the floor of the binding pocket is disrupted by replacing it with a C1491:U1409 mismatch. Breaking up this critical base pair in the E. coli 16S ribosomal RNA causes resistance to a broad range of aminoglycosides. In contrast to these negative controls, the mutant hairpin AS-U1406A still contains all necessary elements for specific aminoglycoside recognition and binds paromomycin with wild type specificity.
as §1, §2
General Procedures for SPR Binding Studies done in Example 5. Samples were prepared by serial dilutions from stock solutions in RNase free microfuge tubes (Ambion) and were centrifuged at 14000 rpm for degassing. Unless otherwise noted, all binding studies were carried out using HBS buffer (Pharmacia Biosensor AB) which was used as obtained. All procedures for binding studies were automated as methods using repetitive cycles of sample injection and regeneration. Typically, buffer was injected in the first two cycles to establish a stable baseline value. Samples were injected at a flowrate of […] using either the KINJECT command. All aminoglycoside samples were injected from autoclaved 7 mm plastic vials that were capped with pierceable plastic crimp caps. To minimize carry over, samples were injected in order of increasing concentration. The running buffer was identical to the injection buffer. Expected values for the equilibrium response of one equivalent of analyte were calculated from the relative molecular weight of the analyte and the immobilized RNA ligand in each flowcells and adjusted with a correction factor of 0.76 which arises from the different molar refractive indices of RNA and the analyte. Binding constants were calculated by fitting the recorded binding isotherm (equivalents bound vs, concentration) to a model with n independent binding constants using the fitting program provided in the program Kaleidagraph (Macintosh).

Neo16-bd = test: SPR binding of aminoglycosides to Neo16-bd aptamer
Experimental: Conditions: 10 mM HEPES (pH 7.4), 0.1 mM EDTA and NaCl as indicated.
The binding of aminoglycosides to RNA is likely to involve substantial ionic contributions and therefore should be strongly influenced by competing buffer ions. […] We studied the salt dependence of neomycin B binding to RBE3, RBE3-neg and Neo16-bd (FIG. 14) by varying the concentration of NaCl included in the injection buffer (10 mM HEPES, pH 7.4, 0.1 mM EDTA). […] This neomycin binding motif was obtained by in vitro selection under conditions of high ionic strength.
To further improve our understanding of specific aminoglycoside recognition, we have also included an artificial aminoglycoside receptor that was evolved in vitro to recognize an aminoglycoside. A number of RNA aptamers for small molecules have been reported in recent years. Among them are aptamers that recognize the aminoglycosides tobramycin, lividomycin and kanamycin.
For comparison, the corresponding values for AS-wt are also included.
General Procedures for SPR Binding Studies done in Example 5. Samples were prepared by serial dilutions from stock solutions in RNase free microfuge tubes (Ambion) and were centrifuged at 14000 rpm for degassing. Unless otherwise noted, all binding studies were carried out using HBS buffer (Pharmacia Biosensor AB) which was used as obtained. All procedures for binding studies were automated as methods using repetitive cycles of sample injection and regeneration. Typically, buffer was injected in the first two cycles to establish a stable baseline value. Samples were injected at a flowrate of […] using either the KINJECT command. All aminoglycoside samples were injected from autoclaved 7 mm plastic vials that were capped with pierceable plastic crimp caps. To minimize carry over, samples were injected in order of increasing concentration. The running buffer was identical to the injection buffer.

| Compound | specificity for AS-wt over negative controls (in words) (AS-wt) | binding to AS-U1406A mutant relative to AS-wt (in words) (AS-U1406A) | other results |
| --- | --- | --- | --- |
| NC[C@H]1O[C@H](O[C@H]2[C@H](O)[C@@H](O[C@H]3O[C@H](CO)[C@@H](O)[C@H](N)[C@H]3O)[C@H](N)C[C@@H]2N)[C@H](N)[C@@H](O)[C@@H]1O [Kanamycin B] | only very moderate specificity for AS-wt | not increased in the U1406A mutant relative to AS-wt but rather decreased |  |
| NC[C@H]1O[C@H](O[C@H]2[C@H](O[C@@H]3O[C@H](CO)[C@@H](O[C@H]4O[C@@H](CO)[C@@H](O)[C@H](O)[C@H]4O)[C@H]3O)[C@@H](O)[C@H](N)C[C@@H]2N)[C@H](N)[C@@H](O)[C@@H]1O [Compound 700, 2"',6"'-desamino-2"'-6"'-hydroxy neomycin B] |  |  | RNA binding, affinity or specificity for AS-wt (in words) (AS-wt; Example 4): virtually the same RNA binding profile |
| N[C@H]1[C@@H](O[C@H]2[C@H](O)[C@@H](O)[C@H](N)C[C@@H]2N)O[C@H](CO)[C@@H](O)[C@@H]1O [Paromamine] | substantial decrease in binding to AS-wt and a loss of most specificity |  |  |
| NC[C@H]1O[C@H](O[C@H]2[C@H](O[C@@H]3O[C@H](CO)[C@@H](O)[C@H]3O)[C@@H](O)[C@H](N)C[C@@H]2N)[C@H](N)[C@@H](O)[C@@H]1O [Ribostamycin] | low | only weakly enhanced | binding to Neo16bd (in words) (Neo16-bd): bound more tightly to the aptamer than paromomycin; lower affinity for AS-wt relative to neamine (AS-wt): 3 fold |
| NC[C@H]1O[C@H](O[C@H]2[C@H](O)[C@@H](O[C@H]3O[C@H](CO)[C@@H](O)[C@H](N)[C@H]3O)[C@H](N)C[C@@H]2N)[C@H](N)C[C@@H]1O [Tobramycin] | only very moderate specificity for AS-wt | not increased in the U1406A mutant relative to AS-wt but rather decreased |  |
| NCC1OC(OC2C(N)CC(N)C(OC3OC(CO)C(O)C(N)C3O)C2O)C(O)C(O)C1O (centres unmarked) [Kanamycin A] | only very moderate specificity for AS-wt | not increased in the U1406A mutant relative to AS-wt but rather decreased |  |
| CN[C@H]1C[C@@H](N)[C@H](O)[C@@H](O[C@@H]2O[C@H](CO)[C@H](O)[C@@H]3OC4(O[C@H]23)O[C@H]([C@@H](N)CO)[C@H](O)[C@H](O)[C@H]4O)[C@@H]1O (some centres unmarked) [Hygromycin B] | none |  |  |
| NC[C@@H]1O[C@H](O[C@H]2[C@@H](O)[C@H](O[C@@H]3[C@@H](O)[C@H](N)C[C@H](N)[C@H]3O[C@H]3O[C@H](CN)[C@@H](O)[C@H](O)[C@H]3N)O[C@@H]2CO)[C@H](O)[C@@H](O)[C@@H]1O [Compound 800, 2"'-desamino-2"'-hydroxy neomycin B] |  |  | Kd (Neo16-bd; HBS-buffer, read-out: Kd, Neo16bd): < 10 nM; affinity improvement for AS-wt in relation to 700 (AS-wt): 40 fold |
| CN[C@@H]1[C@@H](O[C@H]2O[C@H](CO)[C@@H](N)[C@H](O)[C@H]2O)OC2C[C@@H](N)[C@@H](O[C@H]3[C@H](O)[C@@H](O)[C@H](N)C[C@@H]3N)OC2[C@@H]1O (some centres unmarked) [Apramycin] | only marginal if any specificity for AS-wt |  |  |
| Gentamycin | only very moderate specificity for AS-wt | not increased in the U1406A mutant relative to AS-wt but rather decreased |  |
| Butirosin | only moderate specificity for AS-wt | significantly enhanced |  |
